Some test systems named below: KM12; U-251; COLO 205; M14; SF-268; RXF 393; SNB-75; SR; OVCAR-4; OVCAR-8; NCI-H522; CCRF-CEM; SF-539; ACHN; UACC-62; HOP-92; EKVX.
Test in all cases: NCI anticancer screen, dose series, 48 h

Structures are written as SMILES.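 48-hour exposure; five concentrations; linearly interpolated endpoints. GI50 marks 50% less growth.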 Activity calls are given as the source filed them. Rule as the data show it: active = GI50 up to about 1.1 µM and inactive = higher. A value given as a limit tells only on which side of the number the result lay.

Turning to `Cc1ccc(S(=O)(=O)NC2(C=O)CCCC3CCCCC32)cc1` (stereo unspecified), the GI50 with KM12, in the test on U-251, in the test on COLO 205, in the test with M14, with SF-268 and in the test with RXF 393 was > 100 µM (inactive) throughout. In addition, the GI50 in the test with SNB-75, in the test with SR, with OVCAR-4, in the test on OVCAR-8, in the test with NCI-H522 and in the test on CCRF-CEM was > 100 µM (inactive) throughout. For the same compound, the GI50 in the test on SF-539, in the test on ACHN and in the test with UACC-62 was > 100 µM (inactive) in each case.

As to `C=CCCC(C)N(C(=O)OC(C)(C)C)S(=O)(=O)c1ccc(C)cc1` (stereo unspecified), the GI50 with KM12, with U-251, in the test with COLO 205, in the test on M14, in the test with SF-268 and in the test on SNB-75 was > 100 µM (inactive) in each case. Further, the GI50 in the test on SR is > 100 µM (inactive); in the test with OVCAR-4, > 100 µM (inactive); in the test with OVCAR-8 it was > 100 µM (inactive); in the test on NCI-H522, > 100 µM (inactive); with SF-539 it was > 100 µM (inactive); in the test on HOP-92, 40.2 µM (inactive). In addition, the values for the GI50 in the test on ACHN and in the test on UACC-62 were > 100 µM (inactive) and 77.4 µM (inactive), respectively.

For the compound `COc1ccc(NC(=O)CC(=O)N/N=C/c2ccc(N(CCC#N)S(C)(=O)=O)cc2)cc1`, the GI50 in the test on KM12, in the test on U-251, with COLO 205, with EKVX, in the test on M14 and with SF-268 was > 100 µM (inactive) each time. For the same compound, the GI50 with RXF 393 was > 100 µM (inactive); with SNB-75, > 100 µM (inactive); in the test on SR, 3.33 µM (inactive); in the test on OVCAR-4, > 100 µM (inactive); in the test on OVCAR-8 it was > 100 µM (inactive); in the test with NCI-H522 it was > 100 µM (inactive). Besides, the GI50 in the test with CCRF-CEM, with SF-539, in the test with ACHN and in the test on UACC-62 was > 100 µM (inactive) each time.

Take `CC(=O)O[C@]12CCCCC1C1(O)C(O)CCCC[C@H]12` (stereo partly specified): the GI50 with KM12, with U-251, with COLO 205, with EKVX, in the test on M14 and in the test on SF-268 was > 100 µM (inactive) throughout. For the same compound, the GI50 in the test on RXF 393 was > 100 µM (inactive); with SNB-75, 29.6 µM (inactive); with SR it was > 100 µM (inactive); in the test with OVCAR-4, > 100 µM (inactive); with OVCAR-8 it was > 100 µM (inactive); in the test with NCI-H522, > 100 µM (inactive). Besides, the GI50 in the test with CCRF-CEM, in the test with ACHN and in the test on UACC-62 was > 100 µM (inactive) each time.

`Cc1cc(NS(=O)(=O)c2ccc(Nc3c4ccccc4nc4c(C(=O)NCCN(C)C)cccc34)cc2)no1`: the GI50 in the test on KM12 was 9.25 µM (inactive); in the test on U-251 it was 2.3 µM (inactive); in the test on COLO 205, 6.12 µM (inactive); in the test on EKVX, 5.09 µM (inactive); with M14 it was 5.08 µM (inactive); with SF-268 it was 1.78 µM (inactive). Besides, the GI50 in the test on RXF 393 was 5.6 µM (inactive); with SNB-75 it was 4.09 µM (inactive); in the test with SR, 0.272 µM (active); with OVCAR-4, 10.7 µM (inactive); with OVCAR-8, 4.18 µM (inactive); in the test on NCI-H522 it was 0.813 µM (active). Further, the GI50 in the test on CCRF-CEM was 1.08 µM (active); in the test with SF-539, 2.12 µM (inactive); with ACHN it was 3.71 µM (inactive); in the test on UACC-62 it was 2.55 µM (inactive).

These data come from ChEMBL document CHEMBL1201862, “PubChem BioAssay data set” (2004).
